Results as given in patent publication US7259236B2, “RBP1L1, a novel retinoblastoma binding protein-related gene encoding an antigenic epitope and methods of using thereof” (Regents of the University of California, priority 2001, dated 2007).

Assays:
purified specific IgG = assay: ELISA with synthetic peptide antigens; type: binding, human; details: ELISA and Western blot, truncated synthetic peptides; plate coated with 5 μg/ml peptide, IgG 200 μg/ml diluted 1:250 to 1:4,000
Description: The binding of purified specific IgG to synthetic peptides was assessed by ELISA. 96-well polystyrene plates (Reacti-Bind maleic anhydride-activated plates, Pierce) coated with each of the peptides (100 μl of 5 μg/ml) in PBS, incubated overnight at 4° C., and then blocked with 1% bovine serum albumin. Purified specific IgG (200 μg/ml) was serially diluted 1:250, 1:500, 1:1000, 1:2000, and 1:4000, then added in triplicate to peptide-coated wells (500 ng per well), and incubated for 3 hours at room temperature. Peroxidase-conjugated goat anti-human IgG (Pierce) was added at room temperature for 1 hour, followed by the addition of 400 μg/ml of o-phenylenediamine dihydrochloride in peroxide substrate solution. Reactivity was measured at 490 nm. Background absorbance without the primary antibody was subtracted from each sample's absorbance.
(§1) The wells of a 96-well ELISA plate were coated with 100 μl of a peptide (5 μg/ml). The specific human IgG (200 μg/ml) was serially diluted from 1:250 to 1:4,000.

[1] = system: purified specific IgG binding to GST-RBP1L1 fusion protein; assay: Inhibition by synthetic peptides of purified specific IgG binding to GST-RBP1L1 fusion protein (Western blot); design: species or system human; details: peptide 5 μg/ml, purified specific IgG 0.5 μg/ml, fusion protein from clone 151
Description: To determine the minimal number of amino acids necessary for antibody binding, synthetic peptides of various lengths were tested for their ability to inhibit the binding of purified specific IgG to GST-RBP1L1 fusion protein by Western blot analysis. The synthetic peptides tested were:
[…] The antigen and purified IgG mixture was agitated at 4° C. overnight, and the inhibition of antibody binding was assessed by Western blotting using GST-RBP1L1 fusion protein as the target antigen.
The minimum number of amino acids required for the antibody binding was determined by testing various truncated synthetic peptides in ELISAs and on Western blots. The following set of peptides was generated by sequentially reducing the 10-amino acid peptide by one amino acid from either the amino terminus or the carboxyl terminus:
as §1

Q: What does the source list for IKPSLGSKK (listed as Homo sapiens)?
A: epitope recognized by the purified specific human IgG (purified specific IgG): minimal epitope recognized; ability to competitively inhibit the binding of purified specific IgG to the GST-RBP1L1 fusion protein [1]: completely inhibited

Q: How did the “ability to competitively inhibit the binding of purified specific IgG to the GST-RBP1L1 fusion protein” value [1] turn out when IKPSLGSKKN (listed as Homo sapiens) was run?
A: completely inhibited
